Tests used:
[1] = tested on: B16-mhgp100 tumors; experiment: Anti-tumor efficacy in B16 melanoma model, citrate vs potassium hydroxycitrate; type: in vivo, mice; conditions: T cells cultured in potassium hydroxycitrate or citrate; FIGS. 17A-17C
[2] = tested on: T cells; experiment: Autophagy by immunoblot, LC3II/LC3I ratio; type: cell-based, mouse; conditions: acetate 5 mM where present, control 0.7
Procedure: Ablation of autophagy was measured by immunoblot following treatment with a combination of potassium hydroxycitrate and 5 mM acetate, potassium hydroxycitrate only, or control (neither potassium hydroxycitrate nor acetate). Beta-actin was used as a control. Quantification of the autophagy flux was represented by ratio of LC3II/LC3I intensities.

[3] = tested on: CD8+ Pmel-1 T cells; experiment: Annexin V/PI FACS of live, apoptotic and necrotic populations; type: cell-based, mouse
Procedure: (§1) CD8+ Pmel-1 T cells were activated with mhgp100 peptide for 5 days in the presence of 5 mM potassium hydroxycitrate followed by secondary stimulation with anti-CD3 (1 μg/ml) and anti-CD28 (1 μg/ml) (FIG. 7A). Cells were analyzed for surface markers or intracellular cytokines on day 10.
Representative FACS data defining the percentages of live (Annexin V−PI−), apoptotic (Annexin V+PI−) and necrotic populations (Annexin V+PI+) cultured in control or potassium hydroxycitrate are provided in Table C and FIG. 8.

[4] = tested on: transferred Ly5.1+ CD8+ T cells in mice bearing B16-mhgp100 tumors; experiment: Persistence of transferred T cells in spleen of tumor-bearing mice; type: in vivo
[5] = tested on: T cells; experiment: Acetate rescue: CD62L and IFN-γ by FACS; type: cell-based, mouse; conditions: control 49.4
Source text: (§2) For all flow cytometry experiments, T cells were stained with a fixable live/dead stain (Invitrogen, Waltham, MA) in phosphate buffered saline (PBS) followed by surface antibody staining in FACS buffer (PBS with 0.5% bovine serum albumin (BSA) and 0.1% sodium azide). For intracellular cytokine staining, cells were first stained for surface markers and later stained for intracellular molecules following fixation and permeabilization (BD CYTOFIX/CYTOPERM fixation/permeabilization solution kit). For phospho-staining, BD PHOSFLOW reagents (BD Biosciences) were used and protocols were carried out according to the manufacturer's protocols. After washing, cells were stained with phospho-antibodies purchased from Cell Signaling (Danvers, MA). […] All experiments were conducted on a BD FORTESSA flow cytometer (Becton Dickinson, Downers Grove, IL) and analyzed with FLOWJO software (TreeStar, Ashland, OR).
T cells were treated with a combination of potassium hydroxycitrate and acetate, potassium hydroxycitrate alone, or negative control. Expression of CD62L was measured by fluorescence-activated cell sorting (FACS).
IFN-γ secretion was also measured by FACS (Table D) and quantified (FIG. 13) following treatment with control, potassium hydroxycitrate alone, or a combination of potassium hydroxycitrate and acetate.

[6] = tested on: CD8+ Pmel-1 T cells; experiment: Flow cytometry of CD62L/CD44 and IFN-γ production; type: cell-based, mouse; conditions: 5 mM
Procedure: CD8^+ T cells from Pmel-1 mice were stimulated in vitro with 1 μM hgp10025-33 peptide for 5 days and secondary restimulation was done with plate-bound anti-CD3 (1 μg/ml; BD Biosciences, Franklin Lakes, NJ) and soluble anti-CD28 (1 μg/ml; BD Biosciences) and expanded in culture medium containing 60 IU of IL-2. The conditions control/potassium hydroxycitrate (FIG. 7) were activated in the above conditions for a total of 10 days. For measuring T cell effector function, these cells were stimulated on day 10 in the indicated conditions for 5 h with anti-CD3 and -CD28 without IL-2 in the presence of brefeldin A and monesin (BD Biosciences).
as §2, §1
Representative flow cytometry analysis and quantification of CD62L vs CD44 positive cells and IFN-γ+ production in T cells cultured in control or 2-hydroxy citrate (potassium hydroxycitrate (5 mM)) are shown in Table B and FIGS. 7A and 7B. […]

[7] = tested on: T cells; experiment: Cytoplasmic citrate and AcCoA quantification in treated T cells; type: cell-based, mouse
Procedure: T cells (n=3) cultured in control or potassium hydroxycitrate conditions were collected and washed in PBS to perform the total and cytoplasmic AcCoA and citrate levels. Samples were homogenized in 1% TRITON X-100 nonionic surfactant, 20 mM Tris-HCl, pH=7.4, 150 mM NaCl on ice for 10 min (Sigma Acetyl-Coenzyme A Assay Kit—MAK039) or citrate buffer (Sigma Citrate Assay Kit—MAK057) (Sigma, St. Louis, MO) as per the directions provided in the kit. For total AcCoA quantification, pelleted cells were extracted using 80% methanol or 5% sulfo-salicylic acid with 50 μM DTT. After cell lysis, samples were deproteinized with a 10 kDa molecular weight cut-off (MWCO) spin filter prior to the assay. AcCoA concentrations were interpolated with AcCoA standards using fluorometric assay (Ex=535, Em=587) or by mass spectrometry. Citrate concentrations were interpolated with citrate standards using colorimetric assay (570 nm). […]
Cytoplasmic citrate and cytoplasmic AcCoA were quantified following treatment of cells with potassium hydroxycitrate or negative control. […]
Cytoplasmic AcCoA was quantified following treatment with a combination of potassium hydroxycitrate and 5 mM acetate, potassium hydroxycitrate only, or control (neither potassium hydroxycitrate nor acetate) (FIG. 14).

[8] = tested on: adoptively transferred CD8+Ly5.1+ T cells; type: in vivo, mice; conditions: challenge with vaccinia rhgp100 1×10^7 PFU; negative control 7.8
[9] = tested on: IFN-γ locus in CD8+ Pmel-1 cells; experiment: ChIP-PCR of H3K9Ac deposition at the IFN-γ locus; type: cell-based, mouse; conditions: vs negative control; FIG. 2C
Procedure: Chromatin Immunoprecipitations were performed with validated antibodies from previous literatures (Gray et al., Immunity, 46(4): 596-608 (2017); Peng et al., Science, 354(6311): 481-484 (2016)) and protocols were followed according to manufacturing instructions provided by the CHIP-IT express shearing kit (Active Motif, Carlsbad, CA). Briefly, CD8+ Pmel-1 cells were fixed with formaldehyde for 7 minutes on a rocking platform and quenched with 1× of Glycine. Cells were pelleted with phenylmethylsulfonyl fluoride (PMSF) and protein inhibition cocktail and stored at −80 prior to cell lysis. Thawed cells were suspended in ice cold lysis buffer to obtain nuclei material. Nuclei material was sheared by incubating with enzymatic cocktail for 15 minutes at 37° C. Sheared chromatin with a total of 7.5 μg/sample was incubated with protein G magnetic beads with anti-H3K27Ac (Abcam Cat #ab4729), H3k9Ac (Abcam Cat #ab4441) (Abcam, Cambridge, UK) and anti IgG at 4° C. overnight. Magnetic beads were washed with buffers to remove unbound immune complexes and eluted with 150 μl of elution buffer. […] Concentration of the ChIP DNA was measured with high sensitive DNA assay protocol on tape station to normalize the DNA. Samples were sequenced on illumina Next seq system (Illumina, San Diego, CA) with 75 bp reads in single end mode with approximately 40M reads per sample. […]

[10] = tested on: Human CD8+ TILs; experiment: CD62L expression of human CD8+ TILs during rapid expansion, FACS; type: cell-based; conditions: 5 mM
Procedure: Human CD8^+ TILs from various histologies were cultured in the presence or absence (control) of potassium hydroxycitrate (5 mM). In brief, TILs from fresh tumor digests were subjected with 30 ng ml^−1 OKT3 to a rapid expansion protocol (REP) using irradiated peripheral blood mononuclear cells (PBMC) grown cultured in 3,000 IU ml-1 IL-2 in RPMI 1640 and AIM-V, supplemented with 5% in-house human serum 100 μg ml^−1 streptomycin and 100 μg ml^−1 penicillin, 2 mM 1-glutamine, 10 μg ml^−1 gentamicin, for approximately 14 days.
Expression of CD62L was measured by FACS. […] Specifically, FIG. 20 presents representative FACS data for human TIL showing relatively higher expression of the lymphoid homing marker CD62L during TIL expansion for potassium hydroxycitrate cultured TILs as compared to control TILs ([…], 14% increase). FIG. 21 is a graph showing the percentages of cells (% of maximum) expressing CD62L following treatment with negative control or potassium hydroxycitrate. FIGS. 22A and 22B show the quantification of the data shown in FIG. 21 for CD45RO^+ CD62L^+ for two patient samples (Patient A and Patient B).

[11] = tested on: human TIL; experiment: TNF and IL-2 expression of human TIL by FACS; type: cell-based; conditions: 2.5 or 5 mM, vs vehicle
Procedure: Human TIL were cultured without stimulation, in vehicle, or in potassium hydroxycitrate (2.5 or 5 mM). The cells were analyzed for the expression of tumor necrosis factor (TNF) and IL-2.

[12] = tested on: T cells; experiment: Autophagy flux, GFP-mCherry-LC3b reporter, flow cytometry; type: cell-based, mouse
[13] = tested on: B16-mhgp100 tumors; experiment: Anti-tumor efficacy after adoptive transfer of treated Pmel-1 T cells; type: in vivo, mice; conditions: FIGS. 5, 6, 11

Compound: O=C(O)CC(O)(CC(=O)O)C(=O)O [Citrate, reference compound]
- antitumor efficacy in a B16 melanoma model [1]: but not citrate improves antitumor efficacy

Compound: O=C([O-])CC(O)(C(=O)[O-])C(O)C(=O)[O-].[K+].[K+].[K+] (stereo not shown) [Potassium hydroxycitrate, potassium hydroxycitrate]
- autophagy flux, ratio of LC3II/LC3I intensities [2]: 2.1
- percentage of cells PI+ Annexin+ (necrotic) ([3]; negative control 9.74): 2.4%
- percentage of cells PI− Annexin+ (apoptotic) ([3]; negative control 18.1): 1.6%
- percentage of cells PI− Annexin− (live) ([3]; negative control 71.0): 95.2%
- cellular apoptosis ([3]; vs control): reduced cellular apoptosis
- in vivo persistence following adoptive transfer ([4]; T cells cultured in potassium hydroxycitrate vs control): enhanced in vivo persistence
- percentage Ly5.1+ CD8+ T cells in spleen ([4]; day 7 after transfer, tumor-bearing mice, negative control 9.2): 46.3%
- percentage of IFN-γ positive cells [5]: 18.2%
- percentage of cells CD44+ CD62L+ ([6]; day 10, negative control 3.5): 30.7%
- percentage of cells IFN-γ+ ([6]; day 10, negative control 59.3): 14.2%
- effector differentiation ([6]; vs control): blockade of effector differentiation
- cytoplasmic citrate ([7]; T cells treated with potassium hydroxycitrate (ACLY inhibitor) vs negative control, FIG. 2A): citrate accumulation
- cytoplasmic AcCoA ([7]; T cells treated with potassium hydroxycitrate vs negative control, FIG. 2B): depletion of cytoplasmic AcCoA
- antitumor efficacy in a B16 melanoma model [1]: improves antitumor efficacy
- % Ly5.1+ CD8+ T cells, recall response [8]: 25.9%
- H3K9Ac deposition at the IFN-γ locus (ChIP-PCR quantification) [9]: reduced H3K9Ac deposition
- CD62L expression, representative FACS data ([10]; about 14 days REP, control 56.2, FIG. 20): 66.6
- expression of the lymphoid homing marker CD62L during TIL expansion ([10]; vs control): maintained relatively higher expression
- increase of CD62L expression vs control TILs ([10]; FIG. 20): 14%
- poly-functionality (TNF and IL-2 expression) [11]: improves poly-functionality of human TIL
- percentage of mCherry positive cells which are GFP− ([12]; flow cytometry, loss of GFP = autophagic flux, negative control 12.1): 33.2%
- percentage of mCherry positive cells which are GFP+ ([12]; flow cytometry, negative control 83.0): 60.8%
- autophagy ([12]; vs negative control): Enhanced autophagy
- antitumor efficacy [13]: improved antitumor efficacy
